Measured values published in US5100670A, “Use of a bacitracin fraction as a growth promoting agent” (Protor Co., priority 1989, dated 1992).

Legend:
[1] = by the protease insulinase; cited from earlier work
[2] = test system: insulinase; assay: insulinase inhibitory activity measurement (method of Duckworth et al.); format: biochemical; conditions: for anti-insulinase activity: general statement in the description; for insulinase inhibitory activity: peaks from CM-Sepharose column, Example 1
Experimental: The desired fraction is believed to have a molecular weight of about 1400, approximately the same as bacitracin A or F. Their anti-insulinase and antibacterial activities can be assayed in conventional manner. For example, the insulinase inhibitory activity was measured according to the method of Duckworth, et al., Proc. Nat. Acad. Sci., 69, 3698-3702 (1972) and the anti-bacterial activity by the method of Patrick, et al., Antibiotics and Chemotherapy, 1, 133-137 (1951).
A 350 ml bed volume cf CM-Sepharose in a packed column (2.8×56 cm) was equilibrated with 0.05M ammonium acetate, pH 4.5. One gram of commercial bacitracin dissolved in 50 ml of buffer was applied to the packed column. The material was eluted with 2 liter of equilibrating buffer followed by 350 ml of 1M ammonium acetate pH 4.5 buffer. Five ml fractions were collected and absorbance measurements at 252, 280 and 290 nm were made. In addition, insulinase inhibitory activity measurements were made on each peak. […] The peaks were collected, lyophilized, weighed and dissolved in water at 5 mg/ml concentration for specific activity measurements. The material collected with the second buffer contained 5-10% of the total weight of the applied material and 90% of the total insulinase inhibitory capacity. The specific activity of this material was 10-12 times that of the starting commercial material.

Row | Substance | t1/2 of destruction of insulin after injection [1] | anti-insulinase activity [2] | insulinase inhibitory activity [2]
1 | insulin | approximately 40 minutes | – | –
2 | bacitracin A | – | substantially no anti-insulinase activity | negligible
3 | bacitracin F | – | substantially no anti-insulinase activity | negligible
